In ChEMBL document CHEMBL5029145, “Discovery of AZD8154, a Dual PI3Kγδ Inhibitor for the Treatment of Asthma” (J Med Chem, 2021):
Converted amounts (≈) assume the structure as drawn. The source made the active and inactive calls. No cut-off for these calls is given here.

Columns and labels:
[1] = test system: Rattus norvegicus; test: Antiinflammatory activity in ovalbumin-induced Brown Norway rat assessed as reduction in eosinophil counts in bronchoalveolar lavage at 240 microg/kg inhaled using nebulizer 7 hrs prior to ovalbumin challenge measured after 48 hrs by flow cytometry; type: functional, organism-based; settings: dose 240.0 µg/kg, time 55.0 hrs
[2] = Permeability in human Caco2 cells; type: ADME, cell-based; settings: caco-2
[3] = target: T1, Phosphatidylinositol 4,5-bisphosphate 3-kinase catalytic subunit delta isoform/gamma isoform (Homo sapiens) (UniProt P48736+O00329); test: Inhibition of PI3kgamma/delta in anti-CD2/3/28-stimulated human PBMC cells derived from asthmatic patient assessed as reduction in IL-17 release pre-incubated for 1 hr followed by anti-CD2/3/28 stimulation measured after 24 hrs by flow cytometry; type: cell-based; settings: time 25.0 hrs
T1 sequence (P48736 whole entry, looked up, one chain of several, canonical isoform): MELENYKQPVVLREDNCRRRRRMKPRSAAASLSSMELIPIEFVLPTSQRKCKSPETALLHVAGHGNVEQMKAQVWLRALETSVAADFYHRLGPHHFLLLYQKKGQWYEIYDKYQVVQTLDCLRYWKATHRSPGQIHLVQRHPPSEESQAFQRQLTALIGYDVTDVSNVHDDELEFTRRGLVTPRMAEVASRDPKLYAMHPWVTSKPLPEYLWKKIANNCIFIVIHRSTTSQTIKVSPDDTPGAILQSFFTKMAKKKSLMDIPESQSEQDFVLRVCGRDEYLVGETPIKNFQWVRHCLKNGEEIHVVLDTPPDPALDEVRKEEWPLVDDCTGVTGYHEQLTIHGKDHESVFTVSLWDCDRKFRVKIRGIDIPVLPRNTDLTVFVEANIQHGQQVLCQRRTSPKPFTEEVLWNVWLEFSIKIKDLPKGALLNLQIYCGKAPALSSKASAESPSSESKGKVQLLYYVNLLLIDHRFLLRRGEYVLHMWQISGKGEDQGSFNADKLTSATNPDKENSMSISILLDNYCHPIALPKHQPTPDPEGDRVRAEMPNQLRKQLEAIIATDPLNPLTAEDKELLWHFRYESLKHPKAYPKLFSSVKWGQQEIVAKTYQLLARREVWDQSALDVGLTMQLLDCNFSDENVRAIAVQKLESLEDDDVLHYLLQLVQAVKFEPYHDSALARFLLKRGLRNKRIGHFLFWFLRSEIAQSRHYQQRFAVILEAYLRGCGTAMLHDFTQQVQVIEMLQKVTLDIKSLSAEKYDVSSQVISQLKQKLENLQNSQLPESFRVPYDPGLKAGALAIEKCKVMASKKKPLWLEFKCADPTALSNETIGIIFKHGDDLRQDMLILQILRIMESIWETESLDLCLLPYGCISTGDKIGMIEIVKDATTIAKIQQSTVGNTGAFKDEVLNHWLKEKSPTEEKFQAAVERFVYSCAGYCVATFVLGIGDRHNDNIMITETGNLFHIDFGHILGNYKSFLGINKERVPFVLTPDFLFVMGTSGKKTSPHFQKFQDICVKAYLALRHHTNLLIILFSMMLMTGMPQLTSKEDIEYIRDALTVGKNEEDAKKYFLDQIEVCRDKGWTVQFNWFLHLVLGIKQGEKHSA

[4] = target: T2, Phosphatidylinositol 4,5-bisphosphate 3-kinase catalytic subunit delta isoform (Homo sapiens, UniProt O00329); test: Inhibition of PI3Kdelta in anti-IgM-stimulated human JeKo-1 cells assessed as inhibition of AKT phosphorylation at Ser473 residue incubated for 60 mins by TR-FRET assay
T2 sequence (O00329 whole entry): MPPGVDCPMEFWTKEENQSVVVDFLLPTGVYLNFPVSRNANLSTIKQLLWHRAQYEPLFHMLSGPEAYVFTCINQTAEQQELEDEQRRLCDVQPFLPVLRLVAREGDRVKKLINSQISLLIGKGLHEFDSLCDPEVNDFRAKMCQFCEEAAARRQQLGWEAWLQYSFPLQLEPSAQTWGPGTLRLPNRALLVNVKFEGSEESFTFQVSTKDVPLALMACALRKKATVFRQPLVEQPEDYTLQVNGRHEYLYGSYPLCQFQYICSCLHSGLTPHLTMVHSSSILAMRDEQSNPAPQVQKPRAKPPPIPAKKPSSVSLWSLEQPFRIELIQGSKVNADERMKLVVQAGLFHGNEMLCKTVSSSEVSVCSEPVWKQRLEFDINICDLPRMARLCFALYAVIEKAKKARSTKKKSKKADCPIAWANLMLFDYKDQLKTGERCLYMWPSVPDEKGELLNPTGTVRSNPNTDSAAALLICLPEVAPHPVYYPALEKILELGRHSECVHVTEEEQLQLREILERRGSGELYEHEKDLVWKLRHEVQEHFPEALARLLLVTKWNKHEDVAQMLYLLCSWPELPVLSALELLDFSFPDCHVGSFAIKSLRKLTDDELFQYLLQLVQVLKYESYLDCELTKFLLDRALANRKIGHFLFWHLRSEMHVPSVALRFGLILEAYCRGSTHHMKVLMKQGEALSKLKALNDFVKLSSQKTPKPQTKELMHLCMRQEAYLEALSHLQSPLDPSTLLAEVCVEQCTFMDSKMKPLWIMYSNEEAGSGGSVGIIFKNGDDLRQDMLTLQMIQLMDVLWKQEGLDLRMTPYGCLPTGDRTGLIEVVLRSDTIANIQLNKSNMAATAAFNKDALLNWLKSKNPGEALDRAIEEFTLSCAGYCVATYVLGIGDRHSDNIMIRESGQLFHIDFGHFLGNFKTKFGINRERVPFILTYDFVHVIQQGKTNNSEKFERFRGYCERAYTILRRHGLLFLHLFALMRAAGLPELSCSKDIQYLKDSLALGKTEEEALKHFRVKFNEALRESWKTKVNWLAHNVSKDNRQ

[5] = target: T1, Phosphatidylinositol 4,5-bisphosphate 3-kinase catalytic subunit delta isoform/gamma isoform (Homo sapiens); test: Inhibition of PI3kgamma/delta in eotaxin-3-stimulated human eosinophils derived from asthmatic patient assessed as reduction in CD11b expression pre-incubated for 30 mins followed by eotaxin-3 stimulation for 30 mins by flow cytometry; type: tissue-based; settings: Eosinophil, time 60.0 min
[6] = target: Phosphatidylinositol 4-phosphate 3-kinase C2 domain-containing subunit alpha (Homo sapiens, UniProt O00443); test: Inhibition of PIK3C2A (unknown origin) assessed as reduction in substrate phosphorylation by FRET Adapta assay
[7] = target: Phosphatidylinositol 3-kinase catalytic subunit type 3 (Homo sapiens, UniProt Q8NEB9); test: Inhibition of PIK3C3 (unknown origin) assessed as reduction in substrate phosphorylation by FRET Adapta assay
[8] = Thermodynamic stability assessed as onset melting temperature; type: physicochemical
[9] = Solubility of compound in at pH 7.4 at 1 mg/ml using crystalline form of sample incubated for 24 hrs by HPLC MS analysis; type: physicochemical
[10] = Distribution coefficient, logD of compound at pH 7.4; type: physicochemical; settings: octanol/water
[11] = target: Phosphatidylinositol 4,5-bisphosphate 3-kinase catalytic subunit alpha isoform (Homo sapiens, UniProt P42336); test: Inhibition of recombinant human PI3Kalpha assessed as reduction in ADP production using Dic8-PIP2 as substrate pre-treated for 15 mins followed by substrate addition measured after 60 mins by ADP-glo assay
Chain of Phosphatidylinositol 4,5-bisphosphate 3-kinase catalytic subunit alpha isoform (P42336 whole entry, canonical isoform): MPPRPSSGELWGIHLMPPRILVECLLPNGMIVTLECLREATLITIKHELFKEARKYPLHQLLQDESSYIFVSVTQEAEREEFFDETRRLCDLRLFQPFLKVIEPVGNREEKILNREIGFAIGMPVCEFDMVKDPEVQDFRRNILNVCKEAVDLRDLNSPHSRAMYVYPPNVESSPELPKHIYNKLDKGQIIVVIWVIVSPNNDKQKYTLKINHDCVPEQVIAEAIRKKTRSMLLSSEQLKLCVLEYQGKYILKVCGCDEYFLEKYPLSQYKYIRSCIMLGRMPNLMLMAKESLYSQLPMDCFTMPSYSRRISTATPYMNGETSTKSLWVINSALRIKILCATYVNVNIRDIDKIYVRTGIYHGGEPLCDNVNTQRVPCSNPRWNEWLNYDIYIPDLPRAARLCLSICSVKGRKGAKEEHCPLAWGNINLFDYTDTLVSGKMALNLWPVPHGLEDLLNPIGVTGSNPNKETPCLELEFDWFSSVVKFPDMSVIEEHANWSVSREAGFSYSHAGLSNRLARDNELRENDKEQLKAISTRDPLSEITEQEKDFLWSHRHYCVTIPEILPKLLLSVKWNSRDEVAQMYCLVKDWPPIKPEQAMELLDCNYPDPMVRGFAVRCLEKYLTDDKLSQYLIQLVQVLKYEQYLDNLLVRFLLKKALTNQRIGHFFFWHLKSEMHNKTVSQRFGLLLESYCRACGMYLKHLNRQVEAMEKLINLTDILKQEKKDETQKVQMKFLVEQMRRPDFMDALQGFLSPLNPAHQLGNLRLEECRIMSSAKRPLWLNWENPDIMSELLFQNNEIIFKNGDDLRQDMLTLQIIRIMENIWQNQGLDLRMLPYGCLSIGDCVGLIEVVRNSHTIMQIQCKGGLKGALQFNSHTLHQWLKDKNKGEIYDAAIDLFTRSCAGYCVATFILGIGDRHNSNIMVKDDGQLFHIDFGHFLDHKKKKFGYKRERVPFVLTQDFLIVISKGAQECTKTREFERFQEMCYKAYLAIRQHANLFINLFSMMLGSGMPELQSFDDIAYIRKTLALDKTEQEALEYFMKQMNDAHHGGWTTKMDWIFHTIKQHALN

[12] = target: T1, Phosphatidylinositol 4,5-bisphosphate 3-kinase catalytic subunit delta isoform/gamma isoform (Homo sapiens); test: Inhibition of PI3kgamma/delta in anti-CD2/3/28-stimulated human PBMC cells derived from asthmatic patient assessed as reduction in IL-5 release pre-incubated for 1 hr followed by anti-CD2/3/28 stimulation measured after 24 hrs by flow cytometry; type: cell-based; settings: time 25.0 hrs
[13] = target: Phosphatidylinositol 4-phosphate 3-kinase C2 domain-containing subunit beta (Homo sapiens, UniProt O00750); test: Inhibition of PIK3C2B (unknown origin) assessed as reduction in substrate phosphorylation by FRET Adapta assay
Chain of Phosphatidylinositol 4-phosphate 3-kinase C2 domain-containing subunit beta (O00750 whole entry, the tested form may be a part): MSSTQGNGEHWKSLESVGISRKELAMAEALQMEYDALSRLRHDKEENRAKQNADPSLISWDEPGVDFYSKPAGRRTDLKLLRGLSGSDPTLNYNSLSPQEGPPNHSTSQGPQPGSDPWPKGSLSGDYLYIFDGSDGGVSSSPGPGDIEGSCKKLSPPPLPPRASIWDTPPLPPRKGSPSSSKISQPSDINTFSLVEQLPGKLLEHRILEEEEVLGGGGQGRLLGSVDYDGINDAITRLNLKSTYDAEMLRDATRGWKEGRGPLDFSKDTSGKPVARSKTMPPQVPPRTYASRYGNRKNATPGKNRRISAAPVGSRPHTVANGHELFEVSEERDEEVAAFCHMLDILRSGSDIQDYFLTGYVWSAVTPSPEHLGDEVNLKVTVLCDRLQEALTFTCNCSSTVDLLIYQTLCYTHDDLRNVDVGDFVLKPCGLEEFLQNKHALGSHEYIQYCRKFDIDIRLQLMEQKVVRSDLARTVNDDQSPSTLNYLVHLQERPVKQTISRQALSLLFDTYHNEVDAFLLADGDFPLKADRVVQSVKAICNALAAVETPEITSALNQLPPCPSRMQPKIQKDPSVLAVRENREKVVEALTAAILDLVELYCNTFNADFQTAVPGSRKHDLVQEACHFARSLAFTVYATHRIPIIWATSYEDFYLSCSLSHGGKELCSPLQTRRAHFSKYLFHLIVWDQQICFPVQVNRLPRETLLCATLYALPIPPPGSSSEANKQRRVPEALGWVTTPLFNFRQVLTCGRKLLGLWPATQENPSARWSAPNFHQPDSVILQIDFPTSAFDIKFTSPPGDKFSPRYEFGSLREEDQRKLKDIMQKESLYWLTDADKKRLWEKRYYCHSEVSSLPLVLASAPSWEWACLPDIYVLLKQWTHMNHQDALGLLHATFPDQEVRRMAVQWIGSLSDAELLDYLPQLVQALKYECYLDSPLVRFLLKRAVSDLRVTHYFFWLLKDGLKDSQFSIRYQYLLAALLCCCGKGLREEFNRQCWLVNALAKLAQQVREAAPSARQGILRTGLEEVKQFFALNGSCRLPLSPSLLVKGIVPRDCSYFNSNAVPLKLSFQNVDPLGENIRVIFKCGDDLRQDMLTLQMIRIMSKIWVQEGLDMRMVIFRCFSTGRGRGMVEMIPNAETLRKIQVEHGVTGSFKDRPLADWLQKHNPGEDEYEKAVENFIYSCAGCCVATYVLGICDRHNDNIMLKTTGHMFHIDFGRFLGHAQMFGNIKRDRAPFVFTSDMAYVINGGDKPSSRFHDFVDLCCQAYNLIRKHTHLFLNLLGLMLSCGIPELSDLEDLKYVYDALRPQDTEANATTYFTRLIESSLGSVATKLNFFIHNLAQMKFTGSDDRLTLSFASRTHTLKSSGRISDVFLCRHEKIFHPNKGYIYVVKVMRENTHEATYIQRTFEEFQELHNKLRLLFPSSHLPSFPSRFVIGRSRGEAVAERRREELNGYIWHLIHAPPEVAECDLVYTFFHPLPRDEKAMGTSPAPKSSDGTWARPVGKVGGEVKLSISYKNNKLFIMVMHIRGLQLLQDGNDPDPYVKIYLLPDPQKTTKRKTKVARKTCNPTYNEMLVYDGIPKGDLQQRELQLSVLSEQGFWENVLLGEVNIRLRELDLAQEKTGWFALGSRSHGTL

[14] = test system: Rattus norvegicus; test: Antiinflammatory activity in ovalbumin induced Brown Norway rat assessed as reduction in eosinophil counts in lung lavage fluid at 240 microg/kg administered using nebulizer for 24 hrs prior to ovalbumin challenge measured after 48 hrs by flow cytometry; type: functional, organism-based; settings: dose 240.0 µg/kg, time 72.0 hrs
[15] = target: Phosphatidylinositol 4,5-bisphosphate 3-kinase catalytic subunit gamma isoform (Mus musculus, UniProt Q9JHG7); test: Inhibition of PI3Kgamma in C5a-stimulated mouse RAW 264 cells assessed as inhibition of AKT phosphorylation at Ser473 residue Pretreated for 15 mins followed by C5a stimulation measured after 3 mins by HTRF assay; type: cell-based
Chain of Phosphatidylinositol 4,5-bisphosphate 3-kinase catalytic subunit gamma isoform (Q9JHG7 whole entry, canonical isoform): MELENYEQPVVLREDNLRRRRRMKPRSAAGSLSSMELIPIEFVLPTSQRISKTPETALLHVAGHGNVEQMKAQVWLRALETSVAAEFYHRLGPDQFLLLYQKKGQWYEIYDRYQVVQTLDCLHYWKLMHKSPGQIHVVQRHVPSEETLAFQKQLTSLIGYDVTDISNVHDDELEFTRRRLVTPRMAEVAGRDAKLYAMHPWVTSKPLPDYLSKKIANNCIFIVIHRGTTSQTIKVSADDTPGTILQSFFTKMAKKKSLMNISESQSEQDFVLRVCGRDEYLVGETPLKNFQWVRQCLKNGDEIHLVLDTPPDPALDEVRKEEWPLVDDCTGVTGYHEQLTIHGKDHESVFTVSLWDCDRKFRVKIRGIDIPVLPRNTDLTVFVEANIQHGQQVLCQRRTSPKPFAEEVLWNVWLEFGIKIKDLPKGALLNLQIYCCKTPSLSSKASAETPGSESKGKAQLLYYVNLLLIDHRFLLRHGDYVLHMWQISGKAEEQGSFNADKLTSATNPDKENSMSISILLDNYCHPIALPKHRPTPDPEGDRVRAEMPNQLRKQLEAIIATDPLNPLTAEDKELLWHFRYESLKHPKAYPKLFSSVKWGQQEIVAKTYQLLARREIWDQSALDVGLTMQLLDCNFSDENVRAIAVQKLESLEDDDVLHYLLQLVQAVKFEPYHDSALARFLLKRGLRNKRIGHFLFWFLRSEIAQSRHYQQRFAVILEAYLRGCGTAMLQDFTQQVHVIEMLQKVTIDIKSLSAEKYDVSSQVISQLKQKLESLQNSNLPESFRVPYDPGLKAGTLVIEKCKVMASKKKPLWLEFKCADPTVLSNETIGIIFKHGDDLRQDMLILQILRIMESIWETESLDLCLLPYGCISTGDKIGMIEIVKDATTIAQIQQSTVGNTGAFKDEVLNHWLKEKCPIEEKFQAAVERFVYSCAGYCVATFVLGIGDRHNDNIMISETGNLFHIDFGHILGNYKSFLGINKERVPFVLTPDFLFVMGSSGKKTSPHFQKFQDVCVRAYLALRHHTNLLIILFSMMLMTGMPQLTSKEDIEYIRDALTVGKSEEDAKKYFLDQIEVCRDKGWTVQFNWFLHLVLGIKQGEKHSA

[16] = Apparent terminal half life in rat administered via inhalation; type: ADME; settings: in vivo, inhaled or intranasal

permeability [2]: Permeable | Activity [3]: Active | IC50 [4]: 3.98 nM | Activity [5]: Active | IC50 [6]: 3980 nM | IC50 [7]: 501 nM | Tm [8]: 285 °C | solubility thermodynamic at 24 h [9]: 0.054 µM (≈ 0.0298 µg/mL) | logD [10]: 4.4 | IC50 [11]: 63.1 nM | Activity [12]: Active | IC50 [13]: 3.16 nM | IC50 [15]: 0.794 nM | half-life [16]: 7.1 h
Compound: Cc1nc(Nc2cccc(N3CCCC3=O)n2)sc1-c1cc2c(c(S(C)(=O)=O)c1)C(=O)N([C@@H](C)C1CC1)C2 [AZD-8154]
Activity [1]: Active | Activity [14]: inactive
